Laboratory results: US4820695A, “C-20-dihydro-deoxy-(cyclic amino)-derivatives of macrolide antibiotics” (priority 1987, dated 1989)
Converted amounts (≈) assume the structure as drawn. Where two headings read alike, the source gives them in different places.

Legend:
[1] = test system: Staphylococcus aureus S13E; test: MIC, standard agar-dilution assay (Table IX); type: cell-based; conditions: Staphylococcus aureus, S13E
[2] = test system: Streptococcus Group D X66; test: MIC, standard agar-dilution assay (Table IX); type: cell-based; conditions: read-out: MIC
Escherichia coli EC14 = test: MIC, standard agar-dilution assay (Table IX); type: cell-based; conditions: read-out: MIC
[3] = test system: Staphylococcus epidermidis 222; test: MIC, standard agar-dilution assay (Table IX); type: cell-based; conditions: read-out: MIC
[4] = test system: Streptococcus Group D 2041; test: MIC, standard agar-dilution assay (Table IX); type: cell-based; conditions: GROUPD2041, read-out: MIC
Staphyloccus aureus X1.1 = test: MIC, standard agar-dilution assay (Table IX); type: cell-based, Staphylococcus aureus; conditions: Staphylococcus aureus, read-out: MIC
[5] = test system: Streptococcus pneumoniae Park I; test: MIC, standard agar-dilution assay (Table IX); type: cell-based
Pasteurella multocida [6] = test: Pasteurella infection in one-day-old chicks, subcutaneous administration (Table XII); type: in vivo; conditions: Administered subcutaneously, 30 mg/kg × 2, 1 and 4 hours post-challenge
Description: (§1) Many of the C-20 modified derivatives of this invention have also shown in vivo antibacterial activity against infections induced by gram-negative bacteria. Tables XII and XIII summarize the results of tests in which illustrative compounds were evaluated against a Pasteurella infection in one-day-old chicks. The compounds were administered parenterally or orally after challenge of the chicks with Pasteurella multocida (0.1 ml of a 10^-4 dilution of a twenty-hour tryptose broth culture of an avian P. multocida given subcutaneously). In these tests, unless indicated otherwise, all non-medicated infected chicks died within 24 hours of Pasteurella challenge. In the tests summarized in Table XII, the compounds were administered by subcutaneous injection at a dosage of 30 mg/kg, 1 and 4 hours post-challenge of the chicks with P. multocida. In the tests summarized in Table XIII the compounds were administered in medicated drinking water (at a level of 2 g/gal) available from 4 to 20 hours prior to challenge of the chicks with P. multocida and during the 3 -day test period.
^a Administered subcutaneously; 30 mg/kg × 2

[7] = Titratable groups in 66% aqueous DMF (Tables XIV-XVI); type: physicochemical
Text: ^c Run in 66% aqueous DMF
^d Run in 66% aqueous DMF

Escherichia coli TEM = test: MIC, standard agar-dilution assay (Table IX); type: cell-based; conditions: read-out: MIC
Klebsiella X26 = test: MIC, standard agar-dilution assay (Table IX); type: cell-based; conditions: read-out: MIC
[8] = test system: Haemophilus influenzae 76; test: MIC, standard agar-dilution assay (Table IX); type: cell-based; conditions: Haemophilus influenzae 76, Ampicillin-resistant strain, read-out: MIC
[9] = test system: Staphylococcus aureus V41; test: MIC, standard agar-dilution assay (Table IX); type: cell-based; conditions: Staphylococcus aureus V41, Penicillin-resistant strain, read-out: MIC
[10] = test system: Staphylococcus epidermidis EPI1; test: MIC, standard agar-dilution assay (Table IX); type: cell-based
[11] = test system: Staphylococcus aureus X400; test: MIC, standard agar-dilution assay (Table IX); type: cell-based; conditions: Staphylococcus aureus X400, Methicillin-resistant strain, read-out: MIC
Staphylococcus aureus = test: MIC, broth-dilution microtiter test (Table X); type: cell-based; conditions: read-out: MIC
Text: (§2) The MIC's in Table X were obtained using conventional broth-dilution microtiter tests.

Mycoplasma synoviae 40A = test: MIC, broth-dilution microtiter test (Table X); type: cell-based; conditions: Mycoplasmopsis synoviae, read-out: MIC
Text: as §2

[12] = test system: Pasteurella multocida 17E; test: MIC, broth-dilution microtiter test (Table X); type: cell-based; conditions: Bovine isolate, read-out: MIC
Text: as §2

Mycoplasma hyorhinis 29E = test: MIC, broth-dilution microtiter test (Table X); type: cell-based; conditions: read-out: MIC
Text: as §2

[13] = test system: Pasteurella multocida 60A; test: MIC, broth-dilution microtiter test (Table X); type: cell-based; conditions: Avian isolate, read-out: MIC
Text: as §2

Streptococcus sp. 19F = test: MIC, broth-dilution microtiter test (Table X); type: cell-based; conditions: read-out: MIC
Text: as §2

[14] = test system: Pasteurella hemolytica 22C; test: MIC, broth-dilution microtiter test (Table X); type: cell-based; conditions: read-out: MIC
Text: as §2

[15] = test system: Mycoplasma hyopneumoniae S5972; test: MIC, broth-dilution microtiter test (Table X); type: cell-based; conditions: Mesomycoplasma hyopneumoniae, read-out: MIC
Text: as §2

[16] = test system: Mycoplasma gallisepticum 29C; test: MIC, broth-dilution microtiter test (Table X); type: cell-based; conditions: Mycoplasmoides gallisepticum, read-out: MIC
Text: as §2

Escherichia coli N10 = test: MIC, standard agar-dilution assay (Table IX); type: cell-based; conditions: read-out: MIC
[17] = test system: Haemophilus influenzae C.L.; test: MIC, standard agar-dilution assay (Table IX); type: cell-based; conditions: Ampicillin-sensitive strain, read-out: MIC
[18] = test system: Streptococcus pyogenes C203; test: ED50 in mice experimentally infected with S. pyogenes C203 (Table XI); type: in vivo; conditions: Streptococcus pyogenes, doses given 1 and 4 hours postinfection, read-out: ED50
Description: The C-20 modified derivatives of this invention have shown in vivo antimicrobial activity against experimentally-induced infections in laboratory animals. When two doses of test compound were administered to mice experimentally infected with S. pyogenes C203, the activity observed was measured as an ED50 value [effective dose in mg/kg to protect 50% of the test animals: see Warren Wick, et al., J. Bacteriol. 81, 233-235 (1961)].
^a mg/kg × 2; doses given 1 and 4 hours postinfection

Pasteurella multocida [19] = test: Pasteurella infection in one-day-old chicks, medicated drinking water (Table XIII); type: in vivo; conditions: Administered in the available drinking water at 2 g/gal
Description: as §1
^a Administered in the available drinking water at a concentration of […]

[20] = test system: Streptococcus pyogenes C203; test: MIC, standard agar-dilution assay (Table IX); type: cell-based; conditions: read-out: MIC
[21] = Titratable groups (first value)
[22] = Streptococcus pneumoniae Park I, agar-dilution, read-out: MIC
[23] = Staphylococcus epidermidis EPI1, agar-dilution, read-out: MIC

| Structure (SMILES) | MIC [1] [µg/mL] | MIC [2] [µg/mL] | MIC (Escherichia coli EC14) [µg/mL] | MIC [3] [µg/mL] | MIC [4] [µg/mL] | MIC (Staphyloccus aureus X1.1) [µg/mL] | MIC (Escherichia coli TEM) [µg/mL] | MIC (Klebsiella X26) [µg/mL] | MIC [8] [µg/mL] | MIC [9] [µg/mL] | MIC [11] [µg/mL] | MIC (Staphylococcus aureus) [µg/mL] | MIC (Mycoplasma synoviae 40A) [µg/mL] | MIC [12] [µg/mL] | MIC [13] [µg/mL] | MIC (Streptococcus sp. 19F) [µg/mL] | MIC [14] [µg/mL] | MIC [15] [µg/mL] | MIC [16] [µg/mL] | MIC (Escherichia coli N10) [µg/mL] | further results |
| --- | --- | --- | --- | --- | --- | --- | --- | --- | --- | --- | --- | --- | --- | --- | --- | --- | --- | --- | --- | --- | --- |
| CCC1OC(=O)CC(O)C(C)C(OC2OC(C)C(O)C(N(C)C)C2O)C(CCN2CC3CCC(CC3)C2)CC(C)C(=O)C=CC(C)=CC1COC1OC(C)C(O)C(OC)C1OC (centres unmarked) [Compound D14, 20-DH-DO-20-[3-azabicyclo[3.2.2]nonan-3-yl]desmycosin] | 0.25 (≈ 0.284 µM) | 4 (≈ 4.54 µM) | 32 (≈ 36.3 µM) | 0.12 (≈ 0.136 µM) | 4 (≈ 4.54 µM) | 0.25 (≈ 0.284 µM) | 16 (≈ 18.2 µM) | 8 (≈ 9.08 µM) | 8 (≈ 9.08 µM) | 0.25 (≈ 0.284 µM) | 0.5 (≈ 0.567 µM) | 0.78 (≈ 0.885 µM) | 0.39 (≈ 0.443 µM) | 3.12 (≈ 3.54 µM) | 3.12 (≈ 3.54 µM) | 1.56 (≈ 1.77 µM) | 1.56 (≈ 1.77 µM) | 0.78 (≈ 0.885 µM) | 1.56 (≈ 1.77 µM) | 32 (≈ 36.3 µM) | MIC ([5]; Streptococcus pneumoniae): 0.5 µg/mL (≈ 0.567 µM); Number of Deaths/Number Treated (Pasteurella multocida [6]): 2/10; pKa ([7]; Titratable groups): 9.2; pKa [7, 21]: 7.9; MIC ([10]; Staphylococcus epidermidis, EPI1): 0.5 µg/mL (≈ 0.567 µM); MIC (Mycoplasma hyorhinis 29E): 50 µg/mL (≈ 56.7 µM); MIC [17]: 4 µg/mL (≈ 4.54 µM); ED50 ([18]; C203, Oral): 50 mg/kg; ED50 ([18]; C203, sc, Subcutaneous): 1 mg/kg; Number of Deaths/Number Treated (Pasteurella multocida [19]): 0/10 |
| CCC1OC(=O)CC(O)C(C)C(OC2OC(C)C(O)C(N(C)C)C2O)C(CCN2CCc3ccccc3C2)CC(C)C(=O)C=CC(C)=CC1COC1OC(C)C(O)C(OC)C1OC (centres unmarked) [Compound D12, 20-DH-DO-20-(1,2,3,4-Tetrahydroisoquinolin-2-yl)desmycosin] | 0.5 (≈ 0.562 µM) | 4 (≈ 4.5 µM) | 128 (≈ 144 µM) | 0.25 (≈ 0.281 µM) | 8 (≈ 9 µM) | 0.5 (≈ 0.562 µM) | 64 (≈ 72 µM) | 32 (≈ 36 µM) | 8 (≈ 9 µM) | 0.5 (≈ 0.562 µM) | 0.5 (≈ 0.562 µM) | 1.56 (≈ 1.75 µM) | 0.39 (≈ 0.439 µM) | 6.25 (≈ 7.03 µM) | 12.5 (≈ 14.1 µM) | 3.12 (≈ 3.51 µM) | 3.12 (≈ 3.51 µM) | 3.12 (≈ 3.51 µM) | ≤ 0.048 | > 128 | MIC [5, 22]: 1 µg/mL (≈ 1.12 µM); Number of Deaths/Number Treated (Pasteurella multocida [6]): 9/10; MIC [20]: 0.5 µg/mL (≈ 0.562 µM); MIC [10, 23]: 0.5 µg/mL (≈ 0.562 µM); MIC (Mycoplasma hyorhinis 29E): 12.5 µg/mL (≈ 14.1 µM); MIC [17]: 16 µg/mL (≈ 18 µM); ED50 ([18]; C203, Oral): < 6.3 mg/kg; ED50 ([18]; C203, sc, Subcutaneous): 2 mg/kg; Number of Deaths/Number Treated (Pasteurella multocida [19]): 8/10 |
| CCC1OC(=O)CC(O)C(C)C(OC2OC(C)C(O)C(N(C)C)C2O)C(CCN2CCCC3CCCCC32)CC(C)C(=O)C=CC(C)=CC1COC1OC(C)C(O)C(OC)C1OC (centres unmarked) [Compound D20, 20-DH-DO-20-(decahydroquinolin-1-yl)desmycosin] | 0.5 (≈ 0.559 µM) | 8 (≈ 8.94 µM) | 128 (≈ 143 µM) | 0.25 (≈ 0.279 µM) | 8 (≈ 8.94 µM) | 0.5 (≈ 0.559 µM) | 32 (≈ 35.7 µM) | 16 (≈ 17.9 µM) | 16 (≈ 17.9 µM) | 0.5 (≈ 0.559 µM) | 0.5 (≈ 0.559 µM) | 0.78 (≈ 0.871 µM) | 0.195 (≈ 0.218 µM) | 3.12 (≈ 3.49 µM) | 3.12 (≈ 3.49 µM) | 3.12 (≈ 3.49 µM) | 3.12 (≈ 3.49 µM) | 0.78 (≈ 0.871 µM) | 0.78 (≈ 0.871 µM) | 128 (≈ 143 µM) | MIC [5, 22]: 0.12 µg/mL (≈ 0.134 µM); MIC [20]: 0.25 µg/mL (≈ 0.279 µM); pKa ([7]; Titratable groups): 9.4; pKa [7, 21]: 7.9; MIC [10, 23]: 0.5 µg/mL (≈ 0.559 µM); MIC (Mycoplasma hyorhinis 29E): 50 µg/mL (≈ 55.9 µM); MIC [17]: 16 µg/mL (≈ 17.9 µM); ED50 ([18]; C203, Oral): 34 mg/kg; ED50 ([18]; C203, sc, Subcutaneous): 1.7 mg/kg; Number of Deaths/Number Treated (Pasteurella multocida [19]): 0/10 |
| CCC1OC(=O)CC(O)C(C)C(OC2OC(C)C(O)C(N(C)C)C2O)C(CCN2CC3(C)CC2CC(C)(C)C3)CC(C)C(=O)C=CC(C)=CC1COC1OC(C)C(O)C(OC)C1OC (centres unmarked) [Compound D21, 20-DH-DO-20-[1,3,3-trimethyl-6-azabicyclo[3.2.1]octan-6-yl]desmycosin] | 1 (≈ 1.1 µM) | 4 (≈ 4.4 µM) | 64 (≈ 70.4 µM) | 0.5 (≈ 0.55 µM) | 8 (≈ 8.8 µM) | 1 (≈ 1.1 µM) | 32 (≈ 35.2 µM) | 64 (≈ 70.4 µM) | 16 (≈ 17.6 µM) | 1 (≈ 1.1 µM) | 1 (≈ 1.1 µM) | 0.78 (≈ 0.858 µM) | 0.39 (≈ 0.429 µM) | 3.12 (≈ 3.43 µM) | 3.12 (≈ 3.43 µM) | 1.56 (≈ 1.72 µM) | 3.12 (≈ 3.43 µM) | 0.195 (≈ 0.214 µM) | 1.56 (≈ 1.72 µM) | 64 (≈ 70.4 µM) | MIC [5, 22]: 0.5 µg/mL (≈ 0.55 µM); Number of Deaths/Number Treated (Pasteurella multocida [6]): 7/10; MIC [20]: 0.5 µg/mL (≈ 0.55 µM); pKa ([7]; Titratable groups): 9.7; pKa [7, 21]: 8; MIC [10, 23]: 1 µg/mL (≈ 1.1 µM); MIC [17]: 32 µg/mL (≈ 35.2 µM); ED50 ([18]; C203, Oral): 10 mg/kg; ED50 ([18]; C203, sc, Subcutaneous): 1 mg/kg; Number of Deaths/Number Treated (Pasteurella multocida [19]): 3/10 |
